Key:
[1] = test system: diabetes model rat; assay: inhibitory effect on the amount of albumin excreted in urine in diabetes model rat; format: in vivo, SDT Fatty rats; settings: urine collected for 24 hours, urine albumin/urine creatinine ratio
Description: Male SDT Fatty rats aged 6 weeks (CLEA Japan) were purchased and preliminarily bred for 1 week or more. Experiments were performed at 8 to 16 weeks of age. The animals were fed ad libitum with solid feed CRF-1 (Oriental Yeast) and watered ad libitum.
Animals were housed in metabolic cages 2 days before test substance administration, and urine was collected for 24 hours. On the day before administration of the test substance, urine albumin and urine creatinine were measured, and grouping was performed by a stratification randomization method based on the urine albumin/urine creatinine ratio (ACR) and the average value of body weights for each group.
The compounds (test substances) of Examples 9-5, 10, 11, 12, 25-7 and 32, and water for injection (Otsuka Pharmaceutical) as a vehicle were orally administered once at 5 mL/kg. The administration dose is described in Table 3.
For evaluation of the amount of albumin excreted in urine of each animal, a urine albumin/urine creatinine ratio (ACR) was measured. After administration of the test substance, the animals were housed in metabolic cages, and urine was collected for 24 hours. Each concentration of urine albumin and urine creatinine was measured using an automatic analyzer 7180 (Hitachi High-Tech), and ACR was calculated by dividing the urine albumin concentration by the urine creatinine concentration.

[2] = test system: diabetic renal disease model rat; assay: in vivo drug efficacy in diabetic renal disease model rat (single kidney removal, saline); design: species or system SDT.Cg-Leprfa/JttJcl (SDT-fatty rat); settings: 8 weeks after the start of administration
Description: A diabetic renal disease model was created by extracting the unilateral kidneys of male SDT.Cg-Leprfa/JttJcl (SDT-fatty/Jcl, CLEA Japan) rats, a type 2 diabetes model, and then giving saline. The in vivo drug efficacy of the present compound on diabetic renal disease was evaluated in this model.
Male SDT.Cg-Leprfa/JttJcl (SDT-fatty rat) aged 4 weeks was purchased from CLEA Japan, and subjected to experiments. The animals were fed ad libitum with Purina5008 (Japan SLC) from the time of arrival, and watered ad libitum. Water was given from the arrival and until 1 week from single kidney removal, and a 0.2 w/v% NaCl solution was given 1 week after single kidney removal.
After acclimation breeding, the body weight was measured, and buprenorphine was subcutaneously administered at a dose of 0.01 mg/kg under inhalation anesthesia with isoflurane (Mayran). After removing hair from the right abdomen of the rat, the right abdomen was disinfected with ethanol and isodine for disinfection and incised to expose the right kidney. The renal artery and vein was ligated with a suture to stop the blood flow, the right kidney was totally removed, and the incision was sutured. The following day, analgesic buprenorphine was administered subcutaneously at a dose of 0.01 mg/kg.
Grouping was performed 3 weeks after single kidney removal. The mice were divided into groups so that the average of the above parameters was almost equal between the groups on the basis of body weight, serum urea nitrogen (BUN), serum creatinine (S-CRE), serum total cholesterol (T-CHO), blood glucose level (GLU), neutral fat (TG), urinary protein (U-TP), urinary albumin (U-ALB), and creatinine clearance (CCr).
All of the compounds of Examples 25-7, 10, 11 and 12 were orally administered once a day for 8 weeks in combination with losartan (30 mg/kg), a renin angiotensin system inhibitor, and canagliflozin (10 mg/kg), a glucose co-transporter inhibitor. The compounds of Examples 25-7, 10, 11 and 12, and losartan were each dissolved in water for injection (Otsuka Pharmaceutical), and canagliflozin was suspended in a 0.5% methyl cellulose solution (Fujifilm Wako Pure Chemical Corporation) to prepare an administration solution. In the Control-1 group, water for injection which is a vehicle of losartan or the compound of Examples 25-7, 10, 11 or 12 was orally administered at 5 mL/kg, and a 0.5% methylcellulose solution which is a vehicle of canagliflozin was orally administered at 2.5 mL/kg once a day for 8 weeks. In the Control-2 group, losartan (30 mg/kg) dissolved in water for injection was orally administered at an administration volume of 2.5 mL/kg, canagliflozin (10 mg/kg) suspended in a 0.5% methyl cellulose solution was orally administered at an administration volume of 2.5 mL/kg, and water for injection which is a vehicle of the compounds of Examples 25-7, 10, 11 and 12 was orally administered at an administration volume of 2.5 mL/kg once a day for 8 weeks. The administration dose is described in Table 8.
Blood was collected by puncturing the tail vein of the rat with an injection needle. Blood was collected in a tube for serum separation (BD Microtainer) and centrifuged to obtain serum. Urine was collected for 24 hours in a metabolic cage for rat under conditions in which a solid feed and water can be freely taken. The obtained urine sample was centrifuged, and the supernatant was subjected to measurement. The concentrations of BUN, S-CRE, T-CHO, TG, U-ALB, U-TP, GLU and U-CRE were measured by an automatic analyzer Hitachi 7180 (Hitachi High-Tech).

SMILES | ACR mean ([1]; 0.01 mg/kg orally once) [µg/mg] | ACR mean ([1]; 0.03 mg/kg orally once) [µg/mg] | Serum creatinine mean ([2]; 0.01 mg/kg orally once a day for 8 weeks in combination with losartan (30 mg/kg) and canagliflozin (10 mg/kg)) [mg/dL] | Serum creatinine mean ([2]; 0.03 mg/kg orally once a day for 8 weeks in combination with losartan (30 mg/kg) and canagliflozin (10 mg/kg)) [mg/dL] | ACR mean ([1]; 0.003 mg/kg orally once) [µg/mg] | Serum creatinine mean ([2]; 0.1 mg/kg orally once a day for 8 weeks in combination with losartan (30 mg/kg) and canagliflozin (10 mg/kg)) [mg/dL]
Cc1c(C(=O)O)ccc2c1O[C@H]1C[C@@H](O)[C@H](/C=C/C[C@@](C)(O)CCCC(F)(F)F)[C@H]1CC2 [Example 12, (1R,2R,3aS,10aR)-2-hydroxy-5-methyl-1-[(1E,4S)-8,8,8-trifluoro-4-hydroxy-4-methyl-1-octen-1-yl]-2,3,3a,9,10,10a-hexahydro-1H-benzo[b]cyclopenta[f]oxepine-6-carboxylic acid] | 4602.3 | 3887.3 | 0.51 | 0.45 |  | 
CC(C)(c1ccccc1)C(O)/C=C/[C@H]1CC[C@@H]2Oc3c(ccc(C(=O)O)c3F)CC[C@@H]21 (stereo partly drawn) [Example 25-7, (1R,3aS,10aR)-5-fluoro-1-[(1E,3ξ)-3-hydroxy-4-methyl-4-phenyl-1-penten-1-yl]-2,3,3a,9,10,10a-hexahydro-1H-benzo[b]cyclopenta[f]oxepine-6-carboxylic acid] | 2331.6 |  |  |  | 3217.6 | 0.45

— patent EP4682141A1, “TRICYCLIC COMPOUND” (ONO Pharmaceutical Co., Ltd., priority 2023, dated 2024)
